Source: US10145848B2, “Small-molecule hydrophobic tagging of fusion proteins and induced degradation of same” (YALE UNIVERSITY, priority 2010, dated 2018)

What was measured:
[1] = system: NIH-3T3 cells infected with HA-HaloTag-H-RasG12V; assay: Focus formation assay, HA-HaloTag-H-RasG12V cells; assay type: cell-based, mouse; details: 1 μM, 1% FBS, day 6
Description: One hundred thousand NIH-3T3 cells infected with HA-HaloTag-H-RasG12V and HA-HaloTag(D106A)-H-RasG12V were plated onto 10-cm cell culture plates in 10% FBS with DMEM. The next day, the media was replaced with 1% FBS media and the cells were administered either vehicle or 1 μM HyT13. The media and the drug were replaced every two days. On day 6, the foci were photographed and counted as the number of distinct foci per 1-cm^2 area.
We next explored the functional utility of HaloTag-based degradation of an oncogene by HyT13 both in cell culture and in mice. The small GTPase H-Ras is one of the most commonly mutated genes in cancer, with up to […] of cancers harboring activating mutations in this gene^35. Activating mutations, such as the H-RasG12V allele, lead to decreased dependence on extracellular mitogenic signals. […] When H-RasG12V expressing cells are grown in culture under low serum conditions they lose cell-to-cell contact inhibition and form distinct foci instead of growing as a cellular monolayer. Furthermore, these transformed cells are capable of tumor formation when injected into immuno-compromised nude mice^36,37. We investigated whether (1) HaloTag-H-RasG12V driven focus formation can be suppressed in NIH-3T3 cells and (2) HaloTag-H-RasG12V driven tumor burden in mice can be reduced by administration of HyT13. […]

[2] = system: transmembrane HA-HaloTag fusion proteins (Ror2, CD3E, CD9, GPR40, Frizzled-4); assay: Immunoblotting of transmembrane HA-HaloTag fusion proteins in HEK 293T cells; assay type: cell-based; details: 1 μM, 24 hours
EGFP-HaloTag = target: T1, EGFP-HaloTag (Rhodococcus rhodochrous, UniProt P0A3G2, C176G/H272F/K175M/Y273L); assay: Flow cytometry of intracellular GFP fluorescence in HeLa cells expressing EGFP-HaloTag; assay type: cell-based; details: 1 μM, 24 hours
T1 construct: The HaloTag protein was obtained from pHT2 vector (Promega); expressed in transfected cells
Description: Stable HeLa cells were raised by cotransfection of pCS2/EGFP-HaloTag and p-Puro containing the puromycin resistance gene. A clonal population of cells expressing EGFP-HaloTag was isolated. These cells were treated with vehicle or 1 μM HyT13 for 24 hours, washed with PBS and trypsinized. The cells were resuspended in FBS-free DMEM and the intracellular GFP level was measured by FACSCalibur (BD Biosciences).
(§1) As the luciferase assay relied on the loss-of-activity of the luciferase-HaloTag fusion protein, we wanted to determine whether the decrease in luciferase activity resulted from the degradation of the entire fusion protein or perhaps simply inhibition of luciferase activity. We generated a stable Flp-In 293 cell line with a single integration site containing HA-EGFP-HaloTag fusion protein, and employed this cell line to perform kinetic studies with HyT13. […] Consistent with our previous observations, treatment of these cells with 1 μM of HyT13 for 24 hours reduced the mean fluorescence intensity of cells almost 7-fold. Together, these findings provide the first experimental evidence that hydrophobic tagging represents a viable strategy for the control of protein levels.

[3] = target: T2, HA-EGFP-HaloTag fusion protein (Rhodococcus rhodochrous, UniProt P0A3G2, C176G/H272F/K175M/Y273L); assay: Immunoblotting of HA-EGFP-HaloTag in Flp-In 293 cells; assay type: cell-based
T2 construct: The HaloTag protein was obtained from pHT2 vector (Promega); expressed in transfected cells
Description: Flp-In 293 cells expressing HA-EGFP-HaloTag were treated with indicated concentrations of HyT13 for 24 hours. The lysates were probed with anti-HA and anti-β-actin antibodies, with β-actin serving as a loading control. Shown is quantification of three separate experiments, with error bars representing SEM.
Flp-In 293 cells expressing HA-EGFP-HaloTag cells were treated for the indicated times with 1 μM HyT13 and the lysates were probed with anti-HA and anti-β-actin antibodies. The rightmost sample was treated with HyT13 for 24 hours, after which HyT13-free media was provided for 24 hours. Shown is quantification of three separate experiments, with error bars representing SEM.
The indicated cells were washed twice with cold PBS and the cells were lysed in lysis buffer (1×PBS, 1% NP-40, 1 mM EDTA, 40 mM HEPES) with protease inhibitors. The lysates were cleared by centrifugation at 10,000 g for 5 min. The total protein concentration was determined by Bradford assay and 50 μg of protein was loaded onto an 8% Bis-Tris gel. To solubilize polyubiquitinated and aggregated proteins upon proteasome inhibition^42 samples generated for FIG. 12d were lysed with a SDS lysis buffer (1×PBS, 1% NP-40, 1% SDS, 1% sodium deoxycholate, 1 mM EDTA, 40 mM HEPES) with protease inhibitors. The blots were processed by standard procedures with indicated antibodies, and the band intensities were quantified by ImageJ.
as §1

HA-HaloTag-Smad5 = target: T3, HA-HaloTag-Smad5 (Rhodococcus rhodochrous, UniProt P0A3G2, C176G/H272F/K175M/Y273L); assay: Zebrafish embryo HA-HaloTag-Smad5 degradation (immunoblot); assay type: in vivo, Danio rerio; details: 10 μM, 24 hours
T3 construct: The HaloTag protein was obtained from pHT2 vector (Promega); Danio rerio Smad5 (fusion partner); expressed in transfected cells; host or cells: zebrafish (TLF line) embryos injected with in vitro transcribed cRNA at the one-cell stage
Description: The wild-type fish line TLF was used for this study. The HA-HaloTag-Smad5 in pCS2+ plasmid was in vitro transcribed with the SP6 transcription kit (Ambion). The mRNA was injected at 100 ng/μL at the one cell stage and embryos were raised to the 256-cell stage, when they were moved to glass depression slides (10-per-well) and put in 1 ml E2 media with or without HyT13 (10 μM). Embryos were cultured at 28.6° C. for 24 hours and then dechorionated and de-yolked as described^43. Approximately 60 embryos per condition were collected for immunoblot analysis, as described above.
We also explored the possibility of employing the hydrophobic tagging system in the zebrafish Danio rerio. We injected HA-HaloTag-Smad5 cRNA into zebrafish embryos and then treated the embryos with either vehicle or HyT13.

O=C(CC12CC3CC(CC(C3)C1)C2)NCCOCCOCCCCCCCl [HyT13, 2-((3r,5r,7r)-Adamantan-1-yl)-N-(2-(2-((6-chlorohexyl)oxy)ethoxy)ethyl)acetamide]
focus formation [1]: had grown a normal monolayer of cells
degradation of transmembrane HaloTag fusion proteins [2]: efficiently induced their degradation
reduction of mean fluorescence intensity (EGFP-HaloTag): ~7 fold
time to 50% degradation ([3]; 1 μM HyT13): ≤ 1.5 h
time to full degradation effect ([3]; 1 μM HyT13): ≤ 8 h
protein level after removal of compound ([3]; 1 μM for 24 hours, then removed for 24 hours): recovered to half the starting levels
concentration at which maximal degradation effect is achieved ([3]; 24 hours, immunoblotting): 100 nM
DC50 ([3]; read-out: IC50 of fusion protein degradation, 24 hours, Flp-In 293 cells): 21 nM
degradation of fusion protein in zebrafish embryos (HA-HaloTag-Smad5): very efficiently degraded
